Experimental data reported in US20230277630A1, “METHODS AND COMPOSITIONS FOR TREATING AMYOTROPHIC LATERAL SCLEROSIS” (Amylyx Pharmaceuticals, Inc., priority 2022, published 2023).
Several values for one entry are separate records, joined by “and”; a condition that tells them apart may be missing. Identical values can stand only once. Like-named read-outs stand apart in the source and are kept apart here.

Experiments:
[1] = parameters: species or system male Sprague Dawley rats; details: rat, in vivo
Method: Total urine recovery data for Tenofovir, TDF, and PB was calculated for the 24 hour collection period on Days 1 and 5. […] The reported urine recovery data included amount recovered (ng) and percent recovered (%) for […]. Individual and mean Tenofovir, TDF, and PB urine recovery data were presented with SD, reported to three significant figures, and CV %, reported to one decimal place.

[2] = Solubility assessment in HBSSg_7.4 and HBSSg_8.5; details: for solubility: 37 °C, thermodynamic from solid; for Measured Concentration / Percent of the Nominal Concentration: replicates 1-3; for Measured Concentration: incubated overnight
Method: All solubility samples were prepared in silanized glass tubes. […] After incubation, the mixture was centrifuged at 20800 g for 15 minutes. The supernatant was diluted appropriately, and the concentrations of each component were determined by LC-MS/MS.

[3] = target: T1, hrCYP2B6 (Homo sapiens, UniProt P20813); details: recombinant enzyme, 5 μM, pH 7.4
T1 sequence (P20813 1-491): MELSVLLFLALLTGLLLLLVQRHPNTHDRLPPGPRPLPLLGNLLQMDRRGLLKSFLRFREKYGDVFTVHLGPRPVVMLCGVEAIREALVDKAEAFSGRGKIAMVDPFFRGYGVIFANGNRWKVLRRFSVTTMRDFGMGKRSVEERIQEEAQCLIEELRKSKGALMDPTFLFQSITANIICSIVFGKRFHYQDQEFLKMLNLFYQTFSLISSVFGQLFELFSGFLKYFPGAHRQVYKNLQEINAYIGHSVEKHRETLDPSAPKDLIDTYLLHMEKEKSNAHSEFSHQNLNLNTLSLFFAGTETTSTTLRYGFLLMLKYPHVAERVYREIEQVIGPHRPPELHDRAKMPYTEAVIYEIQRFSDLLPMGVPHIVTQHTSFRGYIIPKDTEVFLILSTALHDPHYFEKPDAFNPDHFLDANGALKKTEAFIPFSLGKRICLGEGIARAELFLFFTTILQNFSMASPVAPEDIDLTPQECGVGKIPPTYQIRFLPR
Method: (§1) The reaction was initiated by the addition of NADPH, followed by incubation at 37° C.
(§2) % Remaining of TA=100×At/A0
(§3) Where, At is the peak area ratio of TA to internal standard (IS) at time t, A0 is the average peak area ratio of TA to IS at time zero.

[4] = target: hrCYP2C9 (Homo sapiens, UniProt P11712); details: recombinant enzyme, 5 μM, pH 7.4
Chain of hrCYP2C9 (P11712 whole entry): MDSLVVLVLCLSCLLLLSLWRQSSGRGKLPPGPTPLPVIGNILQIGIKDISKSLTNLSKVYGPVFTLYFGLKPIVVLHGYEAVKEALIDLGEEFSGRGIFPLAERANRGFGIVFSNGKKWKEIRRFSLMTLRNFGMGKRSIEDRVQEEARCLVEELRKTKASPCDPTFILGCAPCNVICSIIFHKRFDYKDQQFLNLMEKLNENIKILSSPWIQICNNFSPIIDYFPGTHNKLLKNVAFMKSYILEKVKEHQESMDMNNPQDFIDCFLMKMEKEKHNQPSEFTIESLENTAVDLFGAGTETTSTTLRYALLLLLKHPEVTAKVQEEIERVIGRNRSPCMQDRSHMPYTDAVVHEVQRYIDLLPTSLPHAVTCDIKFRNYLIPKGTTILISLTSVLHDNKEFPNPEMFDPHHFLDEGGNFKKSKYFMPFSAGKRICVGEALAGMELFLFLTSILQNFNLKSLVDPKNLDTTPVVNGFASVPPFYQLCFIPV
Method: as §1, §2, §3

[5] = target: hrCYP2D6 (Homo sapiens, UniProt P10635); details: recombinant enzyme, 5 μM, pH 7.4
Chain of hrCYP2D6 (P10635 whole entry): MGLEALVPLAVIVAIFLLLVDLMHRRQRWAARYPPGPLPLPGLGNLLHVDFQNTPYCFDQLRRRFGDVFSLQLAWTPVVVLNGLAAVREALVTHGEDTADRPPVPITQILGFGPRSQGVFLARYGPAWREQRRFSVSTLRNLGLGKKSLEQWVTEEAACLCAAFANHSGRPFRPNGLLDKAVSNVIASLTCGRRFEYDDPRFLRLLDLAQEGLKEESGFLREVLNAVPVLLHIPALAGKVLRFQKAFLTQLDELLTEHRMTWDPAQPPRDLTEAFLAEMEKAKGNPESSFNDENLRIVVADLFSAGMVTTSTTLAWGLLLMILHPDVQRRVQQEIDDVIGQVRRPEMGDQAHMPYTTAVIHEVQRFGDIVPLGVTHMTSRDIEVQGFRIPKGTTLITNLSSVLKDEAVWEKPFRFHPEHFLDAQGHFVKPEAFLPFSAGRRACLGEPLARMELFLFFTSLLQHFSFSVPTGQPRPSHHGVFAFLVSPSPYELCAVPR
Method: as §1, §2, §3

[6] = target: T2, hrCYP1A2 (Homo sapiens, UniProt P05177); details: recombinant enzyme, 5 μM, pH 7.4
T2 sequence (P05177 1-516): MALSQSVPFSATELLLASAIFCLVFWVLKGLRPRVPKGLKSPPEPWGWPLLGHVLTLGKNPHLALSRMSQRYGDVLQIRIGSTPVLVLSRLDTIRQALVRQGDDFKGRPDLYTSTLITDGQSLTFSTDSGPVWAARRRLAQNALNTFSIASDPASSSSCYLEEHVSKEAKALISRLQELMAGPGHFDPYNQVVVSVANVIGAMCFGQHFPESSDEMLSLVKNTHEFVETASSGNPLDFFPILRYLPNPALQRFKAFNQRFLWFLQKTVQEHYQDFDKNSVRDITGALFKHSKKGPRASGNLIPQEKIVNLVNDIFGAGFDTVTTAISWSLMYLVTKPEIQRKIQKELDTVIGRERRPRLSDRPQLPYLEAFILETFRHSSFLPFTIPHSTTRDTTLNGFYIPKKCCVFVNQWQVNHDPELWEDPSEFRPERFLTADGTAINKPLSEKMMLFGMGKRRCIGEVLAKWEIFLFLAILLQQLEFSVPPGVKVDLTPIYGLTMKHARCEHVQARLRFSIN
Method: as §1, §2, §3

[7] = target: hrCYP3A4 (Homo sapiens, UniProt P08684); details: recombinant enzyme, 5 μM, pH 7.4
Chain of hrCYP3A4 (P08684 whole entry): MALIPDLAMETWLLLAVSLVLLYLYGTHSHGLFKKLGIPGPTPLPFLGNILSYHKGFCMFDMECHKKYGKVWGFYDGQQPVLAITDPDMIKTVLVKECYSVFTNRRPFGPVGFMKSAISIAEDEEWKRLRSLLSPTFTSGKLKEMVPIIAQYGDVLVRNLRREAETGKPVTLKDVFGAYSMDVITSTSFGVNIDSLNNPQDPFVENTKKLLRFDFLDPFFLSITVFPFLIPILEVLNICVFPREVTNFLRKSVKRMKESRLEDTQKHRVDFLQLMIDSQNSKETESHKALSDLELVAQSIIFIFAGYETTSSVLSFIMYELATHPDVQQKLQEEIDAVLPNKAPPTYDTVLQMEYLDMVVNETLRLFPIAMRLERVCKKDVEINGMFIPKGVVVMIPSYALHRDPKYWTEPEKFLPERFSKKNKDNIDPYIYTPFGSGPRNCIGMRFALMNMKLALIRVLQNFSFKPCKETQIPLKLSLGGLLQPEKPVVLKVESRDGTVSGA
Method: as §1, §2, §3

[8] = target: hrCYP2C19 (Homo sapiens, UniProt P33261); details: recombinant enzyme, 5 μM, pH 7.4
Chain of hrCYP2C19 (P33261 whole entry): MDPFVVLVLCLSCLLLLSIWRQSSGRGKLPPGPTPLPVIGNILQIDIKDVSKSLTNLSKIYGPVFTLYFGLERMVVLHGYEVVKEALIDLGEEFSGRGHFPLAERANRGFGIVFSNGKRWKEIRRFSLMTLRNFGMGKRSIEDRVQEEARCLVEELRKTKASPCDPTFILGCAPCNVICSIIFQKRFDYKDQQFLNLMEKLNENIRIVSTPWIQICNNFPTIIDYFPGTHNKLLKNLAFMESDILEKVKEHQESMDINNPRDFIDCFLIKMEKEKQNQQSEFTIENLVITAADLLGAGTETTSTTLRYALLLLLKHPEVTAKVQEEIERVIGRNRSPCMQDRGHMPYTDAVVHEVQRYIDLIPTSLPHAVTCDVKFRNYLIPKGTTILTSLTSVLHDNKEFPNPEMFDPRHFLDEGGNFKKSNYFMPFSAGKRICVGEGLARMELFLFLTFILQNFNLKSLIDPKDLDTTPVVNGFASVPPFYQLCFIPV
Method: as §1, §2, §3

[9] = target: T3, hrCYP2C8 (Homo sapiens, UniProt P10632); details: recombinant enzyme, 5 μM, pH 7.4
T3 sequence (P10632 1-490): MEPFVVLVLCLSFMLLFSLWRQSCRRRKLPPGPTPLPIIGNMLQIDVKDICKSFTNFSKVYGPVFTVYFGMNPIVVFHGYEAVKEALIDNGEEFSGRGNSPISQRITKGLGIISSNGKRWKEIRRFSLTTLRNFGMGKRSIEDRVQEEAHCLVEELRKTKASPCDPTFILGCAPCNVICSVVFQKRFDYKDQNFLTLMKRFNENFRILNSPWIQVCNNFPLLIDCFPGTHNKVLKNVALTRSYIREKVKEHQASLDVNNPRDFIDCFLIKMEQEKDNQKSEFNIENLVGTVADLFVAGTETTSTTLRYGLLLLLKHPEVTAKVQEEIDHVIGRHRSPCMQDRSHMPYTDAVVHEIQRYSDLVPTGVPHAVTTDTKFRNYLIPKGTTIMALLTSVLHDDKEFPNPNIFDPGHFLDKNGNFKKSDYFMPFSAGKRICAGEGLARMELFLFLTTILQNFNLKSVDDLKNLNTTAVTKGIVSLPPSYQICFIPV
Method: as §1, §2, §3

[10] = HBSSg 7.4 buffer, pH 7.4, aqueous buffer
[11] = HBSSg 8.5 buffer, pH 8.5, aqueous buffer

Compound: O=C(O)CCCc1ccccc1 [PB, sodium phenylbutyrate]
- Urine concentrations ([1]; male, Sprague Dawley, po): Urine concentrations for PB analysis in all animals on Day 1, for TUDCA analysis in all animals on Days 1 and 5, and for TDF analysis in two animals on Day 1 and one animal on Day 5 were BLQ (<20 ng/mL) so no recovery data was calculated.
- solubility [2, 10]: ≥ 64.4 mM
- solubility [2, 11]: ≥ 73.9 mM
- Measured Concentration ([2]; HBSSg_7.4): 52000 µM and 59300 µM and 52800 µM
- Percent of the Nominal Concentration ([2]; HBSSg_7.4, target 8005 (TUDCA), 64447 μM (PB)): 80.7% and 92.0%
- Measured Concentration ([2]; HBSSg_8.5): 62200 µM and 53200 µM and 61100 µM
- Percent of the Nominal Concentration ([2]; HBSSg_8.5, target 810 μM (TUDCA), 73927 μM (PB)): 84.1% and 72.0% and 82.6%
- % remained after 60 minutes of incubation ([3]; 1 h): greater than 90%
- % Remaining of TA ([4]; 0 h): 100%
- % Remaining of TA ([4]; 20 min): 99.5%
- % Remaining of TA ([4]; 1 h): 98.0%
- % remained after 60 minutes of incubation ([4]; 1 h): greater than 90%
- % Remaining of TA ([5]; 0 h): 100%
- % Remaining of TA ([5]; 5 min): 99.9%
- % Remaining of TA ([5]; 10 min): 96.7%
- % Remaining of TA ([5]; 20 min): 97.6%
- % Remaining of TA ([5]; 0.5 h): 101%
- % Remaining of TA ([5]; 1 h): 100%
- % remained after 60 minutes of incubation ([5]; 1 h): greater than 90%
- % Remaining of TA ([6]; 0 h): 100%
- % Remaining of TA ([6]; 5 min): 98.3%
- % Remaining of TA ([6]; 20 min): 99.9%
- % Remaining of TA ([6]; 0.5 h): 101%
- % Remaining of TA ([6]; 1 h): 95.1%
- % remained after 60 minutes of incubation ([6]; 1 h): greater than 90%
- % Remaining of TA ([7]; 0 h): 100%
- % Remaining of TA ([7]; 5 min): 100%
- % Remaining of TA ([7]; 10 min): 97.9%
- % Remaining of TA ([7]; 20 min): 100%
- % Remaining of TA ([7]; 0.5 h): 98.1%
- % remained after 60 minutes of incubation ([7]; 1 h): greater than 90%
- % Remaining of TA ([8]; 0 h): 100%
- % Remaining of TA ([8]; 5 min): 97.4%
- % Remaining of TA ([8]; 10 min): 101%
- % Remaining of TA ([8]; 20 min): 99.7%
- % Remaining of TA ([8]; 0.5 h): 97.5%
- % Remaining of TA ([8]; 1 h): 99.8%
- % remained after 60 minutes of incubation ([8]; 1 h): greater than 90%
- % remained after 60 minutes of incubation ([9]; 1 h): greater than 90%

Compound: C[C@H](CCC(=O)NCCS(=O)(=O)O)[C@H]1CC[C@H]2[C@@H]3[C@@H](O)C[C@@H]4C[C@H](O)CC[C@]4(C)[C@H]3CC[C@]12C [TUDCA, tauroursodeoxycholic acid]
- detection in urine [1]: not detected in any urine samples
- solubility [2, 10]: ≥ 8.01 mM
- solubility [2, 11]: ≥ 0.81 mM
- % Remaining of TA ([3]; 0 h): 100%
- % Remaining of TA ([3]; 5 min): 97.6%
- % Remaining of TA ([3]; 10 min): 97.0%
- % Remaining of TA ([3]; 20 min): 99.3%
- % Remaining of TA ([3]; 0.5 h): 99.7%
- % Remaining of TA ([3]; 1 h): 101%
- % remained after 60 minutes of incubation ([3]; 1 h): greater than 90%
- % Remaining of TA ([4]; 0 h): 100%
- % Remaining of TA ([4]; 5 min): 96.0%
- % Remaining of TA ([4]; 10 min): 98.8%
- % Remaining of TA ([4]; 20 min): 98.5%
- % Remaining of TA ([4]; 0.5 h): 97.8%
- % Remaining of TA ([4]; 1 h): 90.3%
- % remained after 60 minutes of incubation ([4]; 1 h): greater than 90%
- % Remaining of TA ([5]; 0 h): 100%
- % Remaining of TA ([5]; 5 min): 98.4%
- % Remaining of TA ([5]; 10 min): 97.8%
- % Remaining of TA ([5]; 20 min): 97.0%
- % Remaining of TA ([5]; 0.5 h): 99.2%
- % Remaining of TA ([5]; 1 h): 98.6%
- % remained after 60 minutes of incubation ([5]; 1 h): greater than 90%
- % Remaining of TA ([6]; 0 h): 100%
- % Remaining of TA ([6]; 5 min): 98.0%
- % Remaining of TA ([6]; 10 min): 101%
- % Remaining of TA ([6]; 20 min): 99.9%
- % Remaining of TA ([6]; 0.5 h): 103%
- % Remaining of TA ([6]; 1 h): 90.5%
- % remained after 60 minutes of incubation ([6]; 1 h): greater than 90%
- % Remaining of TA ([7]; 0 h): 100%
- % Remaining of TA ([7]; 5 min): 97.1%
- % Remaining of TA ([7]; 10 min): 92.1%
- % Remaining of TA ([7]; 20 min): 91.4%
- % Remaining of TA ([7]; 0.5 h): 90.9%
- % Remaining of TA ([7]; 1 h): 91.1%
- % remained after 60 minutes of incubation ([7]; 1 h): greater than 90%
- % Remaining of TA ([8]; 0 h): 100%
- % Remaining of TA ([8]; 5 min): 96.1%
- % Remaining of TA ([8]; 10 min): 98.7%
- % Remaining of TA ([8]; 20 min): 94.8%
- % Remaining of TA ([8]; 0.5 h): 95.1%
- % remained after 60 minutes of incubation ([8]; 1 h): greater than 90%
- % Remaining of TA ([9]; 0 h): 100%
- % Remaining of TA ([9]; 10 min): 99.3%
- % Remaining of TA ([9]; 20 min): 101%
- % Remaining of TA ([9]; 0.5 h): 101%
- % Remaining of TA ([9]; 1 h): 99.8%
- % remained after 60 minutes of incubation ([9]; 1 h): greater than 90%
